Experimental findings from the SangsterLogP compilation are described below.

Each structure is given as a SMILES string.

The nature of this data set: method code SF-AS, from DOI: 10.1021/jm00252a008, PMID: 4598022.

Take `CC(=O)NC1=NC(=O)/C(=C/c2ccc([N+](=O)[O-])o2)S1`: the logP (usually a log measure of how a compound divides between an organic and an aqueous phase) was 1.03.

In the case of `CN1C(=O)/C(=C\c2ccc([N+](=O)[O-])o2)SC1=S`, the logP is 1.06. Compound `CCCN1C(=O)/C(=C/c2ccc([N+](=O)[O-])o2)S/C1=N\C(C)=O` came in with a logP of 1.17. In turn, `O=C1NC(=Nc2ccccc2)SC1=Cc1ccc([N+](=O)[O-])o1` showed a logP of 1.41.

On to `CC/N=C1\NC(=O)/C(=C/c2ccc([N+](=O)[O-])o2)S1`, for which the logP turned out to be 1.16.

In turn, `CC(C)N1C(=O)S/C(=C\c2ccc([N+](=O)[O-])o2)C1=O` gave a logP of 2.42. Next, `CC(C)/N=C1\NC(=O)/C(=C/c2ccc([N+](=O)[O-])o2)S1`: 1.29; `CSC1=NC(=O)C(=Cc2ccc([N+](=O)[O-])o2)S1` (stereo in doubt): 1.41; `CN1C(=O)SC(=CC=Cc2ccc([N+](=O)[O-])o2)C1=O`: 1.4.

In turn, `CN1C(=N)S/C(=C/c2ccc([N+](=O)[O-])o2)C1=O` displayed a logP of 1.44. Under `CC(=O)N(C)C1=NC(=O)/C(=C\C=C/c2ccc([N+](=O)[O-])o2)S1` stands 1.21; under `CN(C)c1nc(=O)cc(-c2ccc([N+](=O)[O-])o2)s1`, 0.55. Compound `CC(=O)N=C1S/C(=C\c2ccc([N+](=O)[O-])o2)C(=O)N1C` (stereo in doubt) came in with a logP of 1.21. Under `C=CCN=C1SC(=Cc2ccc([N+](=O)[O-])o2)C(=O)N1CC=C` stands 1.46; under `CC(=O)NC1=NC(=O)/C(=C\C=Cc2ccc([N+](=O)[O-])o2)S1` (stereo in doubt), 0.95; under `CNc1nc(=O)cc(-c2ccc([N+](=O)[O-])o2)s1`, 0.86. `CCCN1C(=O)S/C(=C\c2ccc([N+](=O)[O-])o2)C1=O` had a logP of 2.4. In turn, `CN1C(=O)S/C(=C\c2ccc([N+](=O)[O-])o2)C1=O` gave a logP of 1.78.

For `O=c1cc(-c2ccc([N+](=O)[O-])o2)sc(=O)[nH]1`, the lipophilicity (logP) was 0.55. Next, `C/N=C1\NC(=O)/C(=C/c2ccc([N+](=O)[O-])o2)S1`: 1.16; `CC(=O)N(C)C1=NC(=O)/C(=C/c2ccc([N+](=O)[O-])o2)S1`: 1.05. Next, `CCN1C(=N)SC(=Cc2ccc([N+](=O)[O-])o2)C1=O`: 1.44; `O=C1NC(=S)SC1=CC=Cc1ccc([N+](=O)[O-])o1`: 0.93; `O=C1NC(=S)SC1=Cc1ccc([N+](=O)[O-])o1`: 0.74. In turn, `CC(C)N=C1SC(=Cc2ccc([N+](=O)[O-])o2)C(=O)N1C(C)C` returned a logP of 1.22. `NC1=NC(=O)C(=Cc2ccc([N+](=O)[O-])o2)S1` (stereo in doubt) yielded a logP of 1.09. For `C/N=C1/NC(=O)/C(=C/C=C/c2ccc([N+](=O)[O-])o2)S1`, the logP is 1.35. Next, `C=CCN1C(=O)S/C(=C\c2ccc([N+](=O)[O-])o2)C1=O`: 2.22; `CCC/N=C1\NC(=O)/C(=C/c2ccc([N+](=O)[O-])o2)S1`: 1.24. `CN(C)C1=NC(=O)/C(=C/c2ccc([N+](=O)[O-])o2)S1` gave a logP of 1.16. `CCN(CC)C1=NC(=O)/C(=C/c2ccc([N+](=O)[O-])o2)S1`: the logP worked out at 1.22.

As to `CCN1C(=O)C(=Cc2ccc([N+](=O)[O-])o2)S/C1=N\C(C)=O`, the logP turned out to be 1.21. Under `CCN1C(=O)S/C(=C/c2ccc([N+](=O)[O-])o2)C1=O` stands 2.29; under `O=C1NC(=O)/C(=C\c2ccc([N+](=O)[O-])o2)S1`, 0.63. Next, `CC(=O)Nc1nc(=O)cc(-c2ccc([N+](=O)[O-])o2)s1`: 1.01. In the case of `CCCN=C1SC(=Cc2ccc([N+](=O)[O-])o2)C(=O)N1CCC`, the logP was determined as 1.32.

`C/N=C1\SC(=Cc2ccc([N+](=O)[O-])o2)C(=O)N1C` came in with a logP of 1.42.
